The text below walks through data of patent US10550116B2, “Fused bicyclic heterocycle derivatives as pesticides” (BAYER CROPSCIENCE AKTIENGESELLSCHAFT, priority 2015, dated 2020).

The structures appear in SMILES notation.

Series [1] relates to Spodoptera frugiperda. Nature of the series: Spodoptera frugiperda spray test. Format: in vivo. To be noted: foliar, 168 h, 500 g/ha, caterpillars on maize leaf discs, after 7 days, read-out: efficacy. On the procedure:
(§1) To produce a suitable active ingredient preparation, 1 part by weight of active ingredient is dissolved with the stated parts by weight of solvent and made up with water containing an emulsifier concentration of 1000 ppm until the desired concentration is attained. To produce further test concentrations, the preparation is diluted with emulsifier-containing water. Leaf discs of maize (Zea mays) are sprayed with an active ingredient preparation of the desired concentration and, after drying, populated with caterpillars of the armyworm (Spodoptera frugiperda). After 7 days, the efficacy in % is determined. 100% means that all the caterpillars have been killed; 0% means that no caterpillar has been killed.

The test system of series [2] is Meloidogyne incognita. Nature of the series: Meloidogyne incognita test. The conditions noted are these: 20 ppm; lettuce; after 14 days. It is filed as in vivo. The method, then:
To produce a suitable preparation of active ingredient, 1 part by weight of active ingredient is mixed with the stated amount of solvent and the concentrate is diluted with water to the desired concentration. Vessels are filled with sand, active ingredient solution, an egg/larvae suspension of the southern root-knot nematode (Meloidogyne incognita) and lettuce seeds. The lettuce seeds germinate and the plants develop. The galls develop on the roots. After 14 days, the nematicidal efficacy in % is determined by the formation of galls. 100% means that no galls were found; 0% means that the number of galls on the treated plants corresponds to the untreated control.

Series [3] deals with Ctenocephalides felis. The experiment in a line: Ctenocephalides felis oral test. It is filed as in vivo. To be noted: 100 ppm in citrated cattle blood; adult cat fleas; after 2 days. The method, then: For the purpose of production of a suitable active ingredient preparation, 10 mg of active ingredient are mixed with 0.5 ml of dimethyl sulphoxide. Dilution with citrated cattle blood gives the desired concentration. About 20 unfed adult cat fleas (Ctenocephalides felis) are placed into a chamber which is closed at the top and bottom with gauze. A metal cylinder whose bottom end is closed with parafilm is placed onto the chamber. The cylinder contains the blood/active ingredient preparation, which can be imbibed by the fleas through the parafilm membrane. After 2 days, the kill in % is determined. 100% means that all of the fleas have been killed; 0% means that none of the fleas have been killed.

Series [4] is described as follows: log P by HPLC on reversed-phase column (EEC Directive 79/831 Annex V.A8). It is filed as physicochemical. To be noted: reversed-phase C18 HPLC column; pH 7.8, aqueous ammonium hydrogencarbonate/acetonitrile; 55° C.; read-out: log P (neutral). On the procedure: The log P values are measured according to EEC Directive 79/831 Annex V.A8 by HPLC (high-performance liquid chromatography) on a reversed-phase column (C 18). Temperature: 55° C. The LC-MS determination in the acidic range is effected at pH 2.7 using 0.1% aqueous formic acid and acetonitrile (contains 0.1% formic acid) as eluents; linear gradient from 10% acetonitrile to 95% acetonitrile. Called log P (HCOOH) in the table. LC-MS determination in the neutral range is effected at pH 7.8 with 0.001 molar aqueous ammonium hydrogencarbonate solution and acetonitrile as eluents; linear gradient from 10% acetonitrile to 95% acetonitrile. Called log P (neutral) in the table. Calibration is carried out using unbranched alkan-2-ones (having 3 to 16 carbon atoms) with known log P values (log P values determined on the basis of the retention times by linear interpolation between two successive alkanones).

The subject of series [5] is Phaedon cochleariae. The experiment in a line: Phaedon cochleariae spray test. Format: in vivo. To be noted: foliar, 168 h, 500 g/ha, larvae on Chinese cabbage leaf discs, after 7 days, read-out: efficacy. On the procedure:
as §1, with “water. Discs” for “water. Leaf discs”, “of Chinese cabbage leaves (Brassica pekinensis)” for “of maize (Zea mays)”, “with larvae” for “with caterpillars”, “the mustard beetle (Phaedon cochleariae).” for “the armyworm (Spodoptera frugiperda).”, “the beetle larvae” for “the caterpillars”, “no beetle larvae have” for “no caterpillar has”

The test system of series [6] is Musca domestica. The experiment in a line: Musca domestica test. Format: in vivo. The conditions noted are these: 4 ppm; adult houseflies; after 2 days. The method, then: To produce a suitable active ingredient preparation, 10 mg of active ingredient are mixed with 0.5 ml of dimethyl sulphoxide, and the concentrate is diluted with water to the desired concentration. Vessels containing a sponge treated with sugar solution and the active ingredient preparation of the desired concentration are populated with 10 adult houseflies (Musca domestica). After 2 days, the kill in % is determined. 100% means that all of the flies have been killed; 0% means that none of the flies have been killed.

The subject of series [7] is Ctenocephalides felis. Nature of the series: Ctenocephalides felis in vitro contact test with adult cat fleas. It is filed as in vivo. The conditions noted are these: application rate 5 μg/cm^2 (=500 g/ha), after 48 h. The method, then:
For the coating of the test tubes, 9 mg of active ingredient are first dissolved in 1 ml of acetone p.a. and then diluted to the desired concentration with acetone p.a. 250 μl of the solution are distributed homogeneously on the inner walls and the base of a 25 ml test tube by turning and rocking on an orbital shaker (rocking rotation at 30 rpm for 2 h). With 900 ppm active ingredient solution and internal surface area 44.7 cm^2, given homogeneous distribution, an area-based dose of 5 μg/cm^2 is achieved. After the solvent has evaporated off, the tubes are populated with 5-10 adult cat fleas (Ctenocephalides felis), sealed with a perforated plastic lid and incubated in a horizontal position at room temperature and ambient humidity. After 48 h, efficacy is determined. To this end, the test tubes are stood upright and the fleas are knocked to the base of the tube. Fleas which remain motionless at the base or move in an uncoordinated manner are considered to be dead or moribund. […] 100% efficacy means that all the fleas were dead or moribund. 0% efficacy means that no fleas were harmed.

Series [8] relates to Myzus persicae. Nature of the series: Myzus persicae spray test. It is filed as in vivo. The conditions noted are these: foliar, 100 g/ha, Chinese cabbage leaf discs, after 5-6 days, read-out: efficacy. The method, then:
as §1, with “Discs” for “Leaf discs”, “Chinese cabbage leaves (Brassica pekinensis) infested by all stages of the green peach aphid (Myzus persicae)” for “maize (Zea mays)”, “concentration.” for “concentration and, after drying, populated with caterpillars of the armyworm (Spodoptera frugiperda).”, “5-6” for “7”, “aphids” for “caterpillars”, “aphids have” for “caterpillar has”

Series [9] has as its system Lucilia cuprina. Nature of the series: Lucilia cuprina test. Format: in vivo. The conditions noted are these: 100 ppm; L1 larvae; after 2 days. On the procedure: To produce a suitable active ingredient preparation, 10 mg of active ingredient are mixed with 0.5 ml of dimethyl sulphoxide, and the concentrate is diluted with water to the desired concentration. About 20 L1 larvae of the Australian sheep blowfly (Lucilia cuprina) are transferred into a test vessel containing minced horsemeat and the active ingredient preparation of the desired concentration. After 2 days, the kill in % is determined. 100% means that all the larvae have been killed; 0% means that no larvae have been killed.

With `CCS(=O)(=O)c1cc2ccccc2nc1-c1nc2cc(C(F)(F)F)ncc2n1C` [Example I-1, 3-Ethylsulphonyl-2-[3-methyl-6-(trifluoromethyl)imidazo[4,5-c]pyridin-2-yl]quinoline], the pest or weed control at 500 g/ha in [1] and in series [5] was 100% each time. Besides, in series [2], the “nematicidal efficacy (formation of galls)” value worked out at 70%. Also, the “efficacy (kill)” value in series [3] is listed as 100%; in series [6], 75%; in [9], 100%. Besides, the chromatographic logP in [4] turned out to be 2.75. Further, the efficacy in series [7] is listed as 100%. In series [8], the pest or weed control at 100 g/ha is 90%.
